Series [1] deals with T1, LRRK2 WT (Homo sapiens, UniProt Q5S007). The series can be described thus: In vitro kinase assay: LRRK2 autophosphorylation. It is filed as biochemical. As to conditions: dose-response.
Series [2] concerns the target T2, LRRK2 G2019S (Homo sapiens, UniProt Q5S007, G2019S). The series can be described thus: In vitro kinase assay: G2019S LRRK2 autophosphorylation. It is filed as biochemical. Particulars: dose-response. The protocol: (§1) Transfection was performed by using Fugene HD reagent (Roche Applied Science) according to the manufacturer's instruction. For purification of recombinant LRRK1 and LRRK2 proteins, ACTA Purifier (GE Healthcare) FPLC system was used.
(§2) Resulting lysates were rotated at 4° C. for 30 min followed by centrifugation at 20,000×g for 15 min. The supernatants were injected into a GSTrap FF column pre-equilibrated with PBS at 0.5. mL/min flow after filtration using a 0.2 μm syringe filter (Corning). The bound proteins were eluted with buffer containing 10 mM GSH (Sigma), 150 mM NaCl, and 50 mM Tris-HCl (pH 8.0).
(§3) The in vitro kinase assay was performed as previously described. […] Recombinant LRRK2 and MBP or CST-4E-BP1 were combined before the kinase reaction. LRRK2 autophosphorylation is LRRK2 itself phosphorylation and MBP or GST-4E-BP1 phosphorylation is induced by LRRK2. After the kinase reaction, combined LRRK2 and MBP or GST-4E-BP1 were loaded on SDSPAGE and phosphorylated LRRK2 and MBP or GST-4E-BP1 could be detected separately an a single gel. Recombinant proteins and inhibitors were incubated at 30° C. in kinase assay buffer containing 20 mM Hepes (pH 7.4), 5 mM EGTA, and 20 mM β-glycerol phosphate. 0.5 μg MBP (Upstate) or 0.5 μg GST-4B-BP1, 50 μM ATP (Sigma), 20 mM MgCl2, and 1 μCi [γ-32P] ATP (PerkinElmer) was added after 5 min. The reaction was performed at 30° C. to reduce non-specific 32P incorporation for 15 min and terminated by the addition of 5×Laemmili sample buffer. […] Gels were stained by coomassie brilliant blue after fixation with 10% acetic acid and 40% methanol and then exposed to a Phosphoimager. Data were analyzed by ImageQuant 6.0 software.
(§4) To calculate the IC50 value, a dose-response curve was constructed and non-linear regression analysis using the equation for a sigmoid plot.

The target of series [3] is T2, LRRK2 G2019S. Briefly: In vitro kinase assay: G2019S LRRK2-mediated MBP phosphorylation. The format is biochemical. As to conditions: dose-response. As for the experimental part: as §1, §2, §3, §4
In another series the target is G2019S LRRK2 (Homo sapiens, UniProt Q5S007, G2019S). The series can be described thus: In vitro kinase assay: LRRK2-mediated phosphorylation of 4E-BP1. The format is biochemical. The protocol: The GST-4E-BP1 expressing vector was generated using the Invitrogen Gateway LR Clonase System. Briefly, an entry clone containing the 4E-BP1 sequence was reacted with the destination vector, pDEST-15 in the presence of the LR clonase mixture. After the clonase reaction, the mixture was transformed into One Shot BL21 chemically competent E. coli. The transformed cells were grown on ampicillin containing LB agar plate for one day at 37° C. Colonies containing GST-4E-BP1 were isolated. For protein induction, 100 μM IPTG was added to 100 mL culture and incubated for 3 h at 30° C. After IPTG incubation, cells were collected by centrifugation at 3,000×g for 15 min. The pellet was lysed with sonication in the presence of lysis butter containing 0.5% TX-100, 50 mM Tris-HCl (pH 8.0), 100 mM NaCl, 0.5 mM EGTA, 5 mM MgCl2, 2 mM DTT, and complete protease inhibitors. The lysate was centrifugated at 15,000×g for 15 min and the supernatant was incubated with GSH-sepharose beads for 2 h at 4° C. After incubation, the beads were washed with PBS containing an additional 150 mM NaCl and 0.1% TX-100 three times. The protein was eluted with elution buffer containing Hepes (pH 8.0), 150 mM NaCl, 30% glycerol, and 30 mM glutathione. The eluted proteins were stored at −80° C.
The in vitro kinase assay was performed as previously described. West, A. B. et al. Parkinson's disease-associated mutations in leucine-rich repeat kinase 2 augment kinase activity. Proc Natl Acad Sci USA 102, 16842-16847 (2005). Recombinant LRRK2 and MBP or CST-4E-BP1 were combined before the kinase reaction. LRRK2 autophosphorylation is LRRK2 itself phosphorylation and MBP or GST-4E-BP1 phosphorylation is induced by LRRK2. After the kinase reaction, combined LRRK2 and MBP or GST-4E-BP1 were loaded on SDSPAGE and phosphorylated LRRK2 and MBP or GST-4E-BP1 could be detected separately an a single gel. Recombinant proteins and inhibitors were incubated at 30° C. in kinase assay buffer containing 20 mM Hepes (pH 7.4), 5 mM EGTA, and 20 mM β-glycerol phosphate. 0.5 μg MBP (Upstate) or 0.5 μg GST-4B-BP1, 50 μM ATP (Sigma), 20 mM MgCl2, and 1 μCi [γ-32P] ATP (PerkinElmer) was added after 5 min. The reaction was performed at 30° C. to reduce non-specific 32P incorporation for 15 min and terminated by the addition of 5×Laemmili sample buffer. The reactions were then heated at 70° C. for 10 min and resolved by 12% SDS-PAGE. Gels were stained by coomassie brilliant blue after fixation with 10% acetic acid and 40% methanol and then exposed to a Phosphoimager. Data were analyzed by ImageQuant 6.0 software.

Series [4] concerns the target T1, LRRK2 WT. The series can be described thus: In vitro kinase assay: LRRK2-mediated MBP phosphorylation. The format is biochemical. As to conditions: dose-response.
Series [5] concerns rat primary cortical neuronal cultures transfected with G2019S LRRK2. Briefly: LRRK2-induced neuronal toxicity in primary cortical neuronal cultures (neurite shortening, TUNEL). The format is cell-based. As to conditions: 0.5 μM. As for the experimental part: Representative photomicrographs of each experimental group. LRRK2 and eGFP constructs were combined in a molar ratio of 10:1, respectively, and transfected by using of Lipofectamine 2000 (Invitrogen) at DIV (day in vitro) 14 into rat primary cortical neuronal cultures. Compounds (0.5 μM) were administrated at the time of transfection and continued until toxicity assessments. On DIV 16, images were collected on a Zeiss Automatic stage with Axiovision 6.0. (a) Low magnified photomicrographs; (b and c) High magnified photomicrographs. Scale bar=50 μm (a) and 10 μm (b and c);
Primary cortical neuronal cultures were prepared from gestational day 15 fetal rats as previously described. Gonzalez-Zulueta, M., et al. Manganese superoxide dismutase protects nNOS neurons from NMDA and nitric oxide-mediated neurotoxicity. J Neurosci 18, 2040-2055 (1998). All procedures used in this study were approved by the Johns Hopkins Medical Institute Animal Care Committee. Cell viability assays and DNA fragmentation (TUNEL assay) were performed as previously described. Smith, W. W., et al. Kinase activity of mutant LRRK2 mediates neuronal toxicity. Nat Neurosci 9, 1231-1233 (2006); West, A. B., et al. Parkinson's disease-associated mutations in LRRK2 link enhanced GTP-binding and kinase activities to neuronal toxicity. Hum Mol Genet 16, 223-232 (2007). The cortex was dissected, incubated for 15 min in 0.027% trypsin, and then transferred to modified Eagle's medium (MEM)/10% horse serum/10% fetal bovine serum/2 mM glutamine followed by trituration. Dissociated cells were plated at a density of 3-4×10^5 cells per well in polyornithine-coated plates. After 4 days the cells were treated with 10 μg of 5-fluoro-2′-deoxyuridine to prevent proliferation of nonneuronal cells. Cells were maintained in MEM/5% horse serum/2 mM glutamine in 8% CO2 incubator. The medium was changed twice weekly. For assessment of LRRK2-mediated neuronal injury, LRRK2 and eGFP constructs were combined in a molar ratio of 10:1, respectively, and transfected into neurons with Lipofectamine 2000 (Invitrogen) at DIV (day in vitro) 14. On DIV 16, images were collected on a Zeiss Automatic stage with Axiovision 6.0. Viable neurons were defined as having at least one smooth extension (neurite) with twice the length of the cell body. The percentage of eGFP-positive injured neurons in each experimental group relative to those neurons transfected with eGFP was calculated.

For series [6] the following is noted: from literature; cited from earlier work.
Series [7] has as its target T3, LRRK1 WT (Homo sapiens, UniProt Q38SD2). Briefly: In vitro kinase assay: LRRK1 autophosphorylation. The format is biochemical.
For series [8], the target named is T3, LRRK1 WT. Briefly: In vitro kinase assay: LRRK1-mediated MBP phosphorylation. It is filed as biochemical.

T2 sequence (Q5S007 whole entry G2019S): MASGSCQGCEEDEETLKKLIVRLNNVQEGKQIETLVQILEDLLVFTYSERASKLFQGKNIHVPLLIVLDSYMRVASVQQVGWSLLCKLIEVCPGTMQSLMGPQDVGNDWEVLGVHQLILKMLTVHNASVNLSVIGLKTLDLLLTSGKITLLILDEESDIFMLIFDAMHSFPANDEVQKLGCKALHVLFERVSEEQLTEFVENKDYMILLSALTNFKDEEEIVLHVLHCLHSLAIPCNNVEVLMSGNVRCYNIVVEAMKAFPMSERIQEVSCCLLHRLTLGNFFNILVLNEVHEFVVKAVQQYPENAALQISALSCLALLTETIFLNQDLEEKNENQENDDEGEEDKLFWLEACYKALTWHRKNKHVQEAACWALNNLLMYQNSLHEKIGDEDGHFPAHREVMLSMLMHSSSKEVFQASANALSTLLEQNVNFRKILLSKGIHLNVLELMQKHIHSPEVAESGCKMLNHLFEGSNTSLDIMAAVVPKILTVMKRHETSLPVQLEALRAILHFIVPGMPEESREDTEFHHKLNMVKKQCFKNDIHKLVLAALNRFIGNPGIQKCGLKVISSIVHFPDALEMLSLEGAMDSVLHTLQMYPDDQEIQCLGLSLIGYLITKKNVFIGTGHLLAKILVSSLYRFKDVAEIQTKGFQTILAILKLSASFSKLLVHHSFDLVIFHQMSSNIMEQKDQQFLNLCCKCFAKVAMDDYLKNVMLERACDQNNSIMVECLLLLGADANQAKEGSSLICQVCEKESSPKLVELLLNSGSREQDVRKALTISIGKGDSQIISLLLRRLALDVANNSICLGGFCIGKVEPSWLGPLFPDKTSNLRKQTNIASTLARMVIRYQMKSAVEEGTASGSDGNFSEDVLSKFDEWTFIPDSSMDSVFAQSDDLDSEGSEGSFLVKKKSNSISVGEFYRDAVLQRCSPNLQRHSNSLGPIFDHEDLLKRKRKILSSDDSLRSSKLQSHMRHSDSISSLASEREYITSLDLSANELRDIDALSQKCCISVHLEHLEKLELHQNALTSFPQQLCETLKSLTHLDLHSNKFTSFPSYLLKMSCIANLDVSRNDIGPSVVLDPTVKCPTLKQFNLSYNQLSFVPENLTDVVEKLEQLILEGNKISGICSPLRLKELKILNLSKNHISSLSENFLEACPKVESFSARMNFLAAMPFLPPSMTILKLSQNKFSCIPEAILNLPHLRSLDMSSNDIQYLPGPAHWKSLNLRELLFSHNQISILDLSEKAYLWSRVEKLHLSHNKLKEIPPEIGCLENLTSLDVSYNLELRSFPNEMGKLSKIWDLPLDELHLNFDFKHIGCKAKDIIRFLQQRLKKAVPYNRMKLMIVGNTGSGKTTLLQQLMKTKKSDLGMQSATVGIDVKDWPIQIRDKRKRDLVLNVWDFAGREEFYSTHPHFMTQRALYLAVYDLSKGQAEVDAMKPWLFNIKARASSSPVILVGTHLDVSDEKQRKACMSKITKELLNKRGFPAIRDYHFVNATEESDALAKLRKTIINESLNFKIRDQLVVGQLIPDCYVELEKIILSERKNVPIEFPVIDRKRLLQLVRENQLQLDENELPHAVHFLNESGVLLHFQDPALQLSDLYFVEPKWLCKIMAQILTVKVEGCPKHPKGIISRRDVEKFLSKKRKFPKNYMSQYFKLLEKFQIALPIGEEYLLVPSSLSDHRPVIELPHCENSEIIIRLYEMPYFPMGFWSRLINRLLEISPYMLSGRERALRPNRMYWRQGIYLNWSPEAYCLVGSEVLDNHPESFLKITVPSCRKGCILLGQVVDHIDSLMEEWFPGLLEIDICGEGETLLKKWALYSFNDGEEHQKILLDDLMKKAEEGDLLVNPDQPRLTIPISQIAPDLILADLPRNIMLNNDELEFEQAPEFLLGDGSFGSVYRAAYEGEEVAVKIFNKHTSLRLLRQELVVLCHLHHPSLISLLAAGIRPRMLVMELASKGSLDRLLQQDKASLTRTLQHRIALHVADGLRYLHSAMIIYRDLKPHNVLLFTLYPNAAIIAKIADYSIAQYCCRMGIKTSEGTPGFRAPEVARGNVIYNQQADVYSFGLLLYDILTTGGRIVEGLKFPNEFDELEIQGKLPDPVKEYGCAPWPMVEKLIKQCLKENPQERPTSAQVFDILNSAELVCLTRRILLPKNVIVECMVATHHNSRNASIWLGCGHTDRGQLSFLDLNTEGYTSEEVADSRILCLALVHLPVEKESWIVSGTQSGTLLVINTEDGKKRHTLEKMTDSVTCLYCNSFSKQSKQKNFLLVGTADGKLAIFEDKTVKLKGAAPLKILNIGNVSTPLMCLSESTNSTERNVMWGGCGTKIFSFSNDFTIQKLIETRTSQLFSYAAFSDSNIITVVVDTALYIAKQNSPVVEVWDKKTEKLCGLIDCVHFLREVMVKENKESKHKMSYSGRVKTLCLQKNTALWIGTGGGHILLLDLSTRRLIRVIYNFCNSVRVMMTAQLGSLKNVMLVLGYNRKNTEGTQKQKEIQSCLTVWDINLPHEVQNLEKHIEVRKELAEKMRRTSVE
T3 sequence (Q38SD2 whole entry): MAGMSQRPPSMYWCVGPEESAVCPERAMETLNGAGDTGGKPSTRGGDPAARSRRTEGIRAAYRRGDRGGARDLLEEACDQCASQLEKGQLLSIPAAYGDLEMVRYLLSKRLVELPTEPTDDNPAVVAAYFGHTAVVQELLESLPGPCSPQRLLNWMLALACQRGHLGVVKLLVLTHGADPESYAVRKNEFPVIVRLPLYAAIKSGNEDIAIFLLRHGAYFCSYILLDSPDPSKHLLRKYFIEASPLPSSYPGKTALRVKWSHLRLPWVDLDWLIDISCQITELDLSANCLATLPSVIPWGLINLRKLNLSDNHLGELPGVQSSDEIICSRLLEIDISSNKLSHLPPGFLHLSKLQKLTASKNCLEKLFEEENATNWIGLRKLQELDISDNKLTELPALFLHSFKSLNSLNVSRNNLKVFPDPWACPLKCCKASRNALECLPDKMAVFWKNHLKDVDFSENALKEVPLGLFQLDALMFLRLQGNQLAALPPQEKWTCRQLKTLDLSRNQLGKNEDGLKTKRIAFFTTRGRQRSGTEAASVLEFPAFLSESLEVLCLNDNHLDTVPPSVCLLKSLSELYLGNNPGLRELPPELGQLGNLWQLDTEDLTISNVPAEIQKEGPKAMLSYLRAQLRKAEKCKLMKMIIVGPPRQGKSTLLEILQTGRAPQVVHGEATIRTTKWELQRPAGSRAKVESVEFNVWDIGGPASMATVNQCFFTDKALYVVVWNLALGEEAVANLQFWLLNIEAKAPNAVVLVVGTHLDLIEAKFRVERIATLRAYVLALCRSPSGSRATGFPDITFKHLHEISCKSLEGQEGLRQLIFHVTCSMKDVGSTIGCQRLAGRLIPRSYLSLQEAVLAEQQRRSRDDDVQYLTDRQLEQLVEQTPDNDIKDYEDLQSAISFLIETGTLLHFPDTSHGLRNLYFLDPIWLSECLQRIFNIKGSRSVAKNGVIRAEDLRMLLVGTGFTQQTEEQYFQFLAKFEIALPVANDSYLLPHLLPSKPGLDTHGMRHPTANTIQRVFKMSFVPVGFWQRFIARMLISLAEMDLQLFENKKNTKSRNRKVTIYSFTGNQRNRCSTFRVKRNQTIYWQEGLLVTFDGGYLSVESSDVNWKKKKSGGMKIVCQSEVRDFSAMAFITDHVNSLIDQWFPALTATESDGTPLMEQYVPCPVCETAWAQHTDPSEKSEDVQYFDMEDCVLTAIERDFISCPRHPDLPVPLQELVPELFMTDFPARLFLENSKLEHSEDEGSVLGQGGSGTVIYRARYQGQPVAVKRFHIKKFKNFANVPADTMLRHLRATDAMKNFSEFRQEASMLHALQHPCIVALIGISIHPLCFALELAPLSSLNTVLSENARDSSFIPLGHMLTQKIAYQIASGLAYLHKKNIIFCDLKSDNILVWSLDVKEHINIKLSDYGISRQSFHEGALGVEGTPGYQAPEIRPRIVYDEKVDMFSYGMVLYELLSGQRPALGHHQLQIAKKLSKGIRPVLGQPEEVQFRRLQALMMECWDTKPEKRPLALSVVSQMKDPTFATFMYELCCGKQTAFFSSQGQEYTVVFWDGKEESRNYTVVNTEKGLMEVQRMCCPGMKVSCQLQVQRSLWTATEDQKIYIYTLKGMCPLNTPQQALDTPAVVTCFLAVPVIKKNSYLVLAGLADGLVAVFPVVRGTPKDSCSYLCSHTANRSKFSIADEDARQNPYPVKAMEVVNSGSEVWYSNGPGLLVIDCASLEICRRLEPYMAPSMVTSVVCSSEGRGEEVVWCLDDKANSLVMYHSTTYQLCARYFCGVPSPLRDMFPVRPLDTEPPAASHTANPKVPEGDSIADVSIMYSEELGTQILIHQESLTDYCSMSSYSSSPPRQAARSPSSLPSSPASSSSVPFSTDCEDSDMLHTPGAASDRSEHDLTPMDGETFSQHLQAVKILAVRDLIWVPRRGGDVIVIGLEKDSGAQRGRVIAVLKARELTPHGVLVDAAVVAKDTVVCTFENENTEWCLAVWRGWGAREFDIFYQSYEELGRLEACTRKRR
T1 sequence (Q5S007 whole entry): as the sequence (Q5S007 whole entry G2019S) above, with S2019G counted along it
G2019S LRRK2, sequence (Q5S007 whole entry G2019S): as the sequence (Q5S007 whole entry G2019S) above

On to `O=C1Nc2ccccc2/C1=C1/Nc2ccccc2C1=O` [Inhibitor 69, Indirubin], for which the “effect on WT LRRK2 autophosphorylation” value on LRRK2 WT [1] is “no effect”. Besides, the “effect on G2019S LRRK2 autophosphorylation” value at LRRK2 G2019S [2] is recorded as “no effect”. The “effect on G2019S LRRK2 MBP phosphorylation” value at LRRK2 G2019S [3] is given as “no effect”. Moreover, the “LRRK2-mediated phosphorylation of 4E-BP1” value at G2019S LRRK2 is “did not inhibit”. Also, the “effect on WT LRRK2 MBP phosphorylation” value at LRRK2 WT [4] is “no effect”. In [5], the “G2019S LRRK2 toxicity” value is “failed to inhibit”. The “crossing of the blood-brain barrier” value in series [6] is reported as “known to cross the blood-brain barrier”. Moreover, the “effect on LRRK1 autophosphorylation” value at LRRK1 WT [7] is listed as “no effect”. Besides, the “effect on LRRK1 MBP phosphorylation” value on LRRK1 WT [8] is reported as “no effect”.
